Tested on: 494315-158-R-J1-PDC complex spheroid growth, percent test/control
Experiment: Anticancer human tumor 494315-158-R-J1-PDC patient-derived soft tissue sarcoma cell line growth inhibition [Asc]
Conditions: for IC50: curve of first compound; for viability, T/C: stronger effect = lower value
Protocol: Multicellular complex tumor spheroid response to apoptosis pathway targeting inhibitors Alrizomadlin, Pelcitoclax, and Dasminapant in combination with a variety of drugs and investigational agents in selected tumor cell lines
The MDM2 inhibitor alrizomadlin, the Bcl-2/Bcl-xL inhibitor pelcitoclax, and the IAPs inhibitor dasminapant were evaluated both individually and in combination with standard of care and investigational anticancer small molecules within a complex spheroid model of solid tumors. . Complex spheroids include a stromal component modeled by human endothelial cells (HUVEC) and fibroblasts modeled by human mesenchymal stem cells (MSCs). The concentration ranges selected for each drug and investigational agent were based upon clinically achievable concentrations if the clinical Cmax of the agent was known.
Compounds. The drugs and investigational agents: alrizomadlin (APG-115; NSC831270), pelcitoclax (APG-1252; NSC835773), dasminapant (APG-1387;NSC834197), TAK-243 (NSC785004), copanlisib (NSC809693), olaparib (NSC753686), talazoparib (NSC767125), cobimetinib (NSC 768068), eltanexor (KPT-8602, NSC 794443), abemaciclib (NSC 768073), sotorasib (NSC818433), adagrasib (NSC 831453), MRTX-1133 (NSC 836407), Iadademestat (ORY1001, NSC 806812), and RMC-4630 (NSC839698), were obtained from the NCI Developmental Therapeutics Program Chemical Repository. The FDA-approved anticancer drug set is available from the Developmental Therapeutics Program at https://dtp.cancer.gov/organization/dscb/obtaining/available plates.htm. […] The stock solutions were prepared in dimethyl sulfoxide (DMSO, Sigma-Aldrich, St. Louis, MO, cat. D2650) at 800-fold the tested concentration and stored at -70 degrees C prior to their use. All drugs and investigational agents were tested over a range starting from a high concentration at or near the clinical Cmax and decreasing in half-log increments. If the clinical Cmax for an agent had not been determined, the highest concentration tested was 10 microM.
The patient-derived cancer (PDC) cell lines include five colon adenocarcinomas: 186277-243-T-J2-PDC, 616215-338-R-J1-PDC, 439559-082-T-J2-PDC, 463943-066-T-J2-PDC, and 519858-162-T-J1-PDC; three pancreatic carcinomas: 323965-272-R-J2-PDC, 521955-158-R6-J3-PDC, and 521955-158-R2-J5-PDC; two uterine sarcomas: 327498-152-R-J2-PDC and 993429-296-R-J1-PDC; two rhabdomyosarcomas: 755483-174-R-J1-PDC and 772245-204-R-J1-PDC; two soft tissue sarcomas: 126254-015-R-J1-PDC and 494315-158-R-J1-PDC; two malignant fibrous histiocytomas: 317291-083-R-J1-PDC and 596521-263-R-J1-PDC; two breast carcinomas: 171881-019-R-J1-PDC and 885512-296-R-J2-PDC; and one ovarian carcinoma: 6556581-035-R-J-PDC were obtained from the NCI PDMR, (https://pdmr.cancer.gov). The established cell lines HSSY-2 synovial sarcoma (RRID:CVCL 8719), SYO-1 synovial sarcoma (RRID:CVCL_7146), MPNST malignant peripheral neural sheath tumor were obtained from the Sloan Kettering Institute. The following established cell lines were purchased from the American Type Culture Collection (ATCC, Manassas, VA), Sor the received from the NCI repository:, PANC-1 pancreatic carcinoma (CRL-1469, RRID:CVCL_0480), OVCAR-5 ovarian carcinoma (RRID:CVCL_1628), OVCAR-8 ovarian carcinoma (RRID:CVCL_1629), , MCF-7 breast carcinoma (CRL-12584, RRID:CVCL_0031), MDA-MB-231 breast carcinoma (CRL-12532, RRID:CVCL_0062), NCI-H1876 small cell lung carcinoma (CRL-5902, RRID:CVCL_1503), NCI-H510A small cell lung carcinoma (HTB-184, RRID:CVCL_1565), NCI-H1417 (CRL-5869, RRID:CVCL_1469), and NCI-H196 small cell lung carcinoma (CRL-5823, RRID:CVCL_1509). Dr. Peter Houghton (Greehey Children's Cancer Research Institute, University of Texas Health Science Center, San Antonio, TX) provided Rh-18 rhabdomyosarcoma (RRID:CVCL_1659). Pooled donor human umbilical vein endothelial cells (HUVEC, Lonza, cat. CC-2519) and human mesenchymal stem cells (hMSC, Lonza, cat. PT-2501) were purchased from Lonza (Walkersville, MD).
Cell Culture. […]
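Also: compound exposure lasted seven days after spheroids formed for three days.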

**Q.** What does the source list for C=C(F)C(=O)N1CCN(c2nc(OCC3CCCN3C)nc3c2CCN(c2cccc4cccc(Cl)c24)C3)CC1CC#N (stereo not given) + CNC(C)C(=O)NC1CN(S(=O)(=O)c2cccc(S(=O)(=O)N3CCC4CCC(C(=O)NC(c5ccccc5)c5ccccc5)N4C(=O)C(NC(=O)C(C)NC)C3)c2)CCC2CCC(C(=O)NC(c3ccccc3)c3ccccc3)N2C1=O?
**A.** IC50 (second compound 0.01 µM): 1560 nM; IC50 (second compound 0.0316 µM): 513 nM; IC50 (second compound 0.1 µM): 1020 nM; IC50 (second compound 0.316 µM): < 31.6 nM; IC50 (second compound 1 µM): < 31.6 nM; viability, T/C (second compound 0.01 µM, first compound 0.0316 µM): 68.7%; viability, T/C (second compound 0.01 µM, first compound 0.1 µM): 70.6%; viability, T/C (second compound 0.01 µM, first compound 0.316 µM): 61.5%; viability, T/C (second compound 0.01 µM, first compound 1 µM): 62.9%; viability, T/C (second compound 0.01 µM, first compound 3.16 µM): 30.8%; viability, T/C (second compound 0.01 µM, first compound 10 µM): 0.15%; viability, T/C (second compound 0.0316 µM, first compound 0.0316 µM): 51.8%; viability, T/C (second compound 0.0316 µM, first compound 0.1 µM): 56.5%; viability, T/C (second compound 0.0316 µM, first compound 0.316 µM): 46.2%; viability, T/C (second compound 0.0316 µM, first compound 1 µM): 48.5%; viability, T/C (second compound 0.0316 µM, first compound 3.16 µM): 20.6%; viability, T/C (second compound 0.0316 µM, first compound 10 µM): 0.13%; viability, T/C (second compound 0.1 µM, first compound 0.0316 µM): 50.7%; viability, T/C (second compound 0.1 µM, first compound 0.1 µM): 48%; viability, T/C (second compound 0.1 µM, first compound 0.316 µM): 52.3%; viability, T/C (second compound 0.1 µM, first compound 1 µM): 51.7%; viability, T/C (second compound 0.1 µM, first compound 3.16 µM): 18.9%; viability, T/C (second compound 0.1 µM, first compound 10 µM): 0.11%; viability, T/C (second compound 0.316 µM, first compound 0.0316 µM): 44.9%; viability, T/C (second compound 0.316 µM, first compound 0.1 µM): 43.4%; viability, T/C (second compound 0.316 µM, first compound 0.316 µM): 38.8%; viability, T/C (second compound 0.316 µM, first compound 1 µM): 45.7%; viability, T/C (second compound 0.316 µM, first compound 3.16 µM): 12.8%; viability, T/C (second compound 0.316 µM, first compound 10 µM): 0.11%; viability, T/C (second compound 1 µM, first compound 0.0316 µM): 34.3%; viability, T/C (second compound 1 µM, first compound 0.1 µM): 39.9%; viability, T/C (second compound 1 µM, first compound 0.316 µM): 36.7%; viability, T/C (second compound 1 µM, first compound 1 µM): 39.8%; viability, T/C (second compound 1 µM, first compound 3.16 µM): 8.22%; viability, T/C (second compound 1 µM, first compound 10 µM): 0.18%

**Q.** For O=C(c1cc(Cc2n[nH]c(=O)c3ccccc23)ccc1F)N1CCN(C(=O)C2CC2)CC1 + CCN1C(C(=O)NC23CCC(C(=O)O)(CC2)CC3)C(c2cccc(Cl)c2F)C2(C(=O)Nc3cc(Cl)ccc32)C12CCCCC2, which IC50 (second compound 0.03 µM) is on record?
**A.** > 10000 nM

**Q.** And the IC50 (second compound 0.0949 µM)?
**A.** > 10000 nM

**Q.** What about the IC50 (second compound 0.3 µM) of the same compound?
**A.** > 10000 nM

**Q.** What about the IC50 (second compound 0.949 µM) of the same compound?
**A.** > 10000 nM

**Q.** And the IC50 (second compound 3 µM)?
**A.** > 10000 nM

**Q.** And the viability, T/C (second compound 0.03 µM, first compound 0.0316 µM)?
**A.** 97.3%

**Q.** What about the viability, T/C (second compound 0.03 µM, first compound 0.1 µM) of the same compound?
**A.** 109%

**Q.** And the viability, T/C (second compound 0.03 µM, first compound 0.316 µM)?
**A.** 94%

**Q.** What about the viability, T/C (second compound 0.03 µM, first compound 1 µM) of the same compound?
**A.** 94.6%

**Q.** And the viability, T/C (second compound 0.03 µM, first compound 3.16 µM)?
**A.** 80.4%

**Q.** And the viability, T/C (second compound 0.03 µM, first compound 10 µM)?
**A.** 51.2%

**Q.** And the viability, T/C (second compound 0.0949 µM, first compound 0.0316 µM)?
**A.** 107%

**Q.** What about the viability, T/C (second compound 0.0949 µM, first compound 0.1 µM) of the same compound?
**A.** 107%

**Q.** And the viability, T/C (second compound 0.0949 µM, first compound 0.316 µM)?
**A.** 96.8%

**Q.** And the viability, T/C (second compound 0.0949 µM, first compound 1 µM)?
**A.** 93.8%

**Q.** What about the viability, T/C (second compound 0.0949 µM, first compound 3.16 µM) of the same compound?
**A.** 74.3%

**Q.** And the viability, T/C (second compound 0.0949 µM, first compound 10 µM)?
**A.** 50.4%

**Q.** What about the viability, T/C (second compound 0.3 µM, first compound 0.0316 µM) of the same compound?
**A.** 97.6%

**Q.** And the viability, T/C (second compound 0.3 µM, first compound 0.1 µM)?
**A.** 103%

**Q.** And the viability, T/C (second compound 0.3 µM, first compound 0.316 µM)?
**A.** 95.2%

**Q.** What about the viability, T/C (second compound 0.3 µM, first compound 1 µM) of the same compound?
**A.** 79.1%

**Q.** What about the viability, T/C (second compound 0.3 µM, first compound 3.16 µM) of the same compound?
**A.** 74.5%

**Q.** What about the viability, T/C (second compound 0.3 µM, first compound 10 µM) of the same compound?
**A.** 53%

**Q.** And the viability, T/C (second compound 0.949 µM, first compound 0.0316 µM)?
**A.** 109%

**Q.** And the viability, T/C (second compound 0.949 µM, first compound 0.1 µM)?
**A.** 90.2%

**Q.** What about the viability, T/C (second compound 0.949 µM, first compound 0.316 µM) of the same compound?
**A.** 92.5%

**Q.** What about the viability, T/C (second compound 0.949 µM, first compound 1 µM) of the same compound?
**A.** 95.9%

**Q.** And the viability, T/C (second compound 0.949 µM, first compound 3.16 µM)?
**A.** 73.9%

**Q.** And the viability, T/C (second compound 0.949 µM, first compound 10 µM)?
**A.** 52%

**Q.** And the viability, T/C (second compound 3 µM, first compound 0.0316 µM)?
**A.** 90.3%

**Q.** And the viability, T/C (second compound 3 µM, first compound 0.1 µM)?
**A.** 83.9%

**Q.** What about the viability, T/C (second compound 3 µM, first compound 0.316 µM) of the same compound?
**A.** 85%

**Q.** And the viability, T/C (second compound 3 µM, first compound 1 µM)?
**A.** 91.9%

**Q.** And the viability, T/C (second compound 3 µM, first compound 3.16 µM)?
**A.** 81.9%

**Q.** What about the viability, T/C (second compound 3 µM, first compound 10 µM) of the same compound?
**A.** 51%

Reference: PubChem BioAssay AID1963420 (Molecular Pharmacology Branch, DTP, NCI, 2024)
